Reference: patent US20150165097A1, “HARDENABLE ANTIMICROBIAL COMPOSITION” (priority 2012, published 2015)
Structures can show the parent of a compound that is named as a salt. Where two headings read alike, the source gives them in different places.

Key:
[1] = Solubility of antimicrobial agent in plasticizer alone (Example 1); assay type: physicochemical
Description: The solubility of three different antimicrobial agents: benzalkonium chloride (BKC), octenidine dihydrochloride (OCT), and polyhexamethylene biguanide (PHMB); in various plasticizers was evaluated by the following procedure. The antimicrobial agent was added to a small vial; to this, the plasticizer of interest was added. […] In each solution, 1.5% wt/wt of one antimicrobial agent (BKC, OCT, or PHMB) was combined with 98.5% wt/wt of one of each of the following plasticizers: DINCH, acetyl tributyl citrate, trioctyl trimellitate, dioctyl adipate, or polyester adipate.

[2] = Solubility / solution appearance of antimicrobial agent in vehicle before addition of PVC
Description: The antimicrobial agent was added to a small vial. For samples containing CPC or OCT, benzyl alcohol (BzOH, available from Mallinkrodt Baker Inc. of Phillipsburg, N.J.), was also added and the mixture was vortexed. Zinc octoate (ZnOct) was then added to the mixture. In a separate jar, a batch mixture containing DINCH, ESO and di-IDPP was prepared; the solution was allowed to roll until a clear/colorless mixture was obtained with no mixing lines. In a separate jar, the appropriate amount of batch mixture was added into the vial containing the antimicrobial agent, solvent, and zinc octoate (ZnOct). The mixture was vortexed and the solution was allowed to roll at a setting of 60 rpm until a determination was made as to whether or not the antimicrobial was dissolving in the solution.
The BKC was dispensed into a 25 mL vial. To this was added the DINCH, TIDP, and ZnOct in that order. The vial was then capped and vortexed for several seconds, and then placed on rollers set at 65 rpm in order to promote the dissolution (if possible) of the BKC. […]
The antimicrobial agents assessed were BKC, BZT, OCT, PCMX, POEtOH, and PHMB. The amount of each antimicrobial agent added was calculated to be equal to the same number of moles of BKC at 1.5 wt % in the plastisol formulation. […]

[3] = Solubility of antimicrobial agent in plasticizer with heat stabilizer package (Example 2), judged visually; conditions: 1.1 wt %; ESO, DDPP and ZnOct present
Description: To the vial containing the plasticizer and antimicrobial, the appropriate amount (see below) of a master batch solution of PVC heat stabilizer was added. The master batch solution of PVC heat stabilizer included: epoxidized soybean oil (ESO), decyl diphenyl Phosphite (DDPP), and zinc octoate (ZnOct). The solution was allowed to roll overnight at ambient temperature at 60 rpm to determine if the antimicrobial was soluble in that system. Samples were evaluated visually for solubility. […] Samples that were clear were judged to have the cationic antimicrobial completely soluble. Those that were hazy were judged to have the antimicrobial partially soluble. Those that were opaque white were substantially insoluble.

Row | Compound | Solubility in plasticizer [1] | Solubility of BKC in DINCH, TIDP vehicle ([2]; Example 4, in the absence of ZnOct) | Solubility in DINCH, ATC, TOTM, DOA and PEA with heat stabilizing package [3] | Solubility in MESAMOLL ([2]; Example 8, BZT: at low concentrations of ZnOct, OCT: even with increasing amounts of ZnOct) | Solubility in plasticizer ([1]; 1.5% wt/wt antimicrobial agent in 98.5% wt/wt DINCH, acetyl tributyl citrate, trioctyl trimellitate, dioctyl adipate or polyester adipate, rolled 16 hours at 60 rpm)
1 | CCCCCCCCCCCCCC[N+](C)(C)Cc1ccccc1.[Cl-] [BKC, Benzyl dimethyl tetradecyl ammonium chloride] | none of these antimicrobial agents were soluble | much less solubility | soluble | – | –
2 | CCCCCCCCN=c1ccn(CCCCCCCCCCn2ccc(=NCCCCCCCC)cc2)cc1 [OCT, Octenidine dihydrochloride] | none of these antimicrobial agents were soluble | – | not soluble | – | –
3 | OCCOc1ccccc1 [POEtOH, 2-phenoxyethanol] | – | – | – | well below their solubility limits | –
4 | Polyhexamethylene biguanide [PHMB] | – | – | not soluble | – | none of these antimicrobial agents were soluble
